Source: ChEMBL document CHEMBL3885861, “Open TG-GATES”

Organism: Rattus norvegicus
Experiment: Open TG-GATES - Regimen: Daily Repeat
Format: toxicity, organism-based, Sprague-Dawley
Set-up: regimen Daily Repeat, gender Male, age 6 weeks
Conditions: in vivo, po, route gavage; for APTT / Bas / Eos / Fbg / Hb / Ht / Lym / MCH / MCHC / MCV / Mono / Neu / PT / Plat / RBC / Ret / WBC: tissue Blood; for KIDNEY_L / KIDNEY_R / KIDNEY_TOTAL: tissue Kidney; for LIVER: tissue Liver; for A/G / ALP / ALT / AST / BUN / CRE / Ca / Cl / DBIL / GLC / IP / K / LDH / Na / PL / RALB / TBIL / TC / TG / TP / gamma-GTP: tissue Plasma
[1] = 0 mg/kg, 72 h, dose level Control, time 3 day
[2] = 0 mg/kg, […], dose level Control, time 7 day
[3] = 0 mg/kg, […], dose level Control, time 14 day
[4] = 0 mg/kg, […], dose level Control, time 28 day
[5] = 100 mg/kg, 72 h, dose level Low, time 3 day
[6] = 100 mg/kg, […], dose level Low, time 7 day
[7] = 100 mg/kg, […], dose level Low, time 14 day
[8] = 100 mg/kg, […], dose level Low, time 28 day

CNC(=C[N+](=O)[O-])NCCSCc1ccc(CN(C)C)o1 [RANITIDINE]
TERMINAL_BW [1]: 234.4 g
APTT [1]: 18.8 s
Bas [1]: 0%
Eos [1]: 1%
Fbg [1]: 243.4 mg/dL
Hb [1]: 13.9 g/dL
Ht [1]: 40.4%
Lym [1]: 79.8%
MCH [1]: 22.1 pg
MCHC [1]: 34.4%
MCV [1]: 64.2 fL
Mono [1]: 2.6%
Neu [1]: 15.2%
PT [1]: 11.9 s
Plat [1]: 112 x10_4/uL
RBC [1]: 629.4 x10_4/ul
Ret [1]: 5.1%
WBC [1]: 95.3 x10_2/uL
KIDNEY_L [1]: 1.1 g
KIDNEY_R [1]: 1.1 g
KIDNEY_TOTAL [1]: 2.2 g
LIVER [1]: 11.5 g
A/G [1]: 1.6
ALP [1]: 924 IU/L
ALT [1]: 35.2 IU/L
AST [1]: 66.6 IU/L
BUN [1]: 16.6 mg/dL
CRE [1]: 0.4 mg/dL
Ca [1]: 10.9 mg/dL
Cl [1]: 103.8 meq/L
DBIL [1]: 0.1 mg/dL
GLC [1]: 198.8 mg/dL
IP [1]: 7.4 mg/dL
K [1]: 4.2 meq/L
LDH [1]: 178.4 IU/L
Na [1]: 140.4 meq/L
PL [1]: 169.6 mg/dL
RALB [1]: 3.5 g/dL
TBIL [1]: 0.2 mg/dL
TC [1]: 92.4 mg/dL
TG [1]: 92.4 mg/dL
TP [1]: 5.7 g/dL
gamma-GTP [1]: 1.2 IU/L
TERMINAL_BW [2]: 265.4 g
TERMINAL_BW [3]: 305.8 g
TERMINAL_BW [4]: 385.4 g
APTT [2]: 19.3 s
Bas [2]: 0%
Eos [2]: 1.2%
Fbg [2]: 225.8 mg/dL
Hb [2]: 13.9 g/dL
Ht [2]: 39.4%
Lym [2]: 76.6%
MCH [2]: 21.8 pg
MCHC [2]: 35.3%
MCV [2]: 61.7 fL
Mono [2]: 2.4%
Neu [2]: 18.4%
PT [2]: 12.1 s
Plat [2]: 120.4 x10_4/uL
RBC [2]: 639 x10_4/ul
Ret [2]: 4.9%
WBC [2]: 90.8 x10_2/uL
APTT [3]: 20.1 s
Bas [3]: 0%
Eos [3]: 1%
Fbg [3]: 238.8 mg/dL
Hb [3]: 14.8 g/dL
Ht [3]: 42.2%
Lym [3]: 75.6%
MCH [3]: 20.6 pg
MCHC [3]: 35.2%
MCV [3]: 58.6 fL
Mono [3]: 2.4%
Neu [3]: 19.2%
PT [3]: 12 s
Plat [3]: 115.1 x10_4/uL
RBC [3]: 720.6 x10_4/ul
Ret [3]: 3.7%
WBC [3]: 101.2 x10_2/uL
APTT [4]: 20.9 s
Bas [4]: 0.4%
Eos [4]: 1.4%
Fbg [4]: 223.8 mg/dL
Hb [4]: 15.6 g/dL
Ht [4]: 43.7%
Lym [4]: 77.8%
MCH [4]: 20 pg
MCHC [4]: 35.7%
MCV [4]: 56.2 fL
Mono [4]: 2.6%
Neu [4]: 16.8%
PT [4]: 12.4 s
Plat [4]: 106.3 x10_4/uL
RBC [4]: 779.2 x10_4/ul
Ret [4]: 2%
WBC [4]: 91.9 x10_2/uL
KIDNEY_L [2]: 1.1 g
KIDNEY_R [2]: 1.1 g
KIDNEY_TOTAL [2]: 2.2 g
KIDNEY_L [3]: 1.2 g
KIDNEY_R [3]: 1.2 g
KIDNEY_TOTAL [3]: 2.4 g
KIDNEY_L [4]: 1.5 g
KIDNEY_R [4]: 1.4 g
KIDNEY_TOTAL [4]: 2.9 g
LIVER [2]: 12.5 g
LIVER [3]: 13.5 g
LIVER [4]: 15.9 g
A/G [2]: 1.5
ALP [2]: 967.8 IU/L
ALT [2]: 31.6 IU/L
AST [2]: 63.8 IU/L
BUN [2]: 15.4 mg/dL
CRE [2]: 0.4 mg/dL
Ca [2]: 10.6 mg/dL
Cl [2]: 103.8 meq/L
DBIL [2]: 0.096 mg/dL
GLC [2]: 219.2 mg/dL
IP [2]: 7.4 mg/dL
K [2]: 3.8 meq/L
LDH [2]: 164.8 IU/L
Na [2]: 140.8 meq/L
PL [2]: 147.4 mg/dL
RALB [2]: 3.4 g/dL
TBIL [2]: 0.1 mg/dL
TC [2]: 73.2 mg/dL
TG [2]: 103.6 mg/dL
TP [2]: 5.7 g/dL
gamma-GTP [2]: 1 IU/L
A/G [3]: 1.4
ALP [3]: 885.8 IU/L
ALT [3]: 38.2 IU/L
AST [3]: 64.2 IU/L
BUN [3]: 16.2 mg/dL
CRE [3]: 0.5 mg/dL
Ca [3]: 10.6 mg/dL
Cl [3]: 103 meq/L
DBIL [3]: 0.088 mg/dL
GLC [3]: 205.2 mg/dL
IP [3]: 7.2 mg/dL
K [3]: 3.9 meq/L
LDH [3]: 177 IU/L
Na [3]: 141.2 meq/L
PL [3]: 140.8 mg/dL
RALB [3]: 3.5 g/dL
TBIL [3]: 0.2 mg/dL
TC [3]: 67.2 mg/dL
TG [3]: 124.8 mg/dL
TP [3]: 6 g/dL
gamma-GTP [3]: 1 IU/L
A/G [4]: 1.3
ALP [4]: 677.6 IU/L
ALT [4]: 31.6 IU/L
AST [4]: 61.4 IU/L
BUN [4]: 17.2 mg/dL
CRE [4]: 0.5 mg/dL
Ca [4]: 10.4 mg/dL
Cl [4]: 103 meq/L
DBIL [4]: 0.092 mg/dL
GLC [4]: 214.6 mg/dL
IP [4]: 6.6 mg/dL
K [4]: 3.9 meq/L
LDH [4]: 126.8 IU/L
Na [4]: 140.8 meq/L
PL [4]: 132.8 mg/dL
RALB [4]: 3.4 g/dL
TBIL [4]: 0.1 mg/dL
TC [4]: 64.2 mg/dL
TG [4]: 85.8 mg/dL
TP [4]: 6.2 g/dL
gamma-GTP [4]: 0.8 IU/L
TERMINAL_BW [5]: 232 g
APTT [5]: 19.5 s
Bas [5]: 0%
Eos [5]: 1.4%
Fbg [5]: 221.4 mg/dL
Hb [5]: 14 g/dL
Ht [5]: 40.9%
Lym [5]: 78.6%
MCH [5]: 21.7 pg
MCHC [5]: 34.2%
MCV [5]: 63.3 fL
Mono [5]: 2.6%
Neu [5]: 15.8%
PT [5]: 11.9 s
Plat [5]: 129.9 x10_4/uL
RBC [5]: 646.4 x10_4/ul
Ret [5]: 5.2%
WBC [5]: 75.1 x10_2/uL
KIDNEY_L [5]: 1 g
KIDNEY_R [5]: 1 g
KIDNEY_TOTAL [5]: 2 g
LIVER [5]: 11.2 g
A/G [5]: 1.6
ALP [5]: 970 IU/L
ALT [5]: 34.6 IU/L
AST [5]: 63.6 IU/L
BUN [5]: 15.6 mg/dL
CRE [5]: 0.4 mg/dL
Ca [5]: 10.8 mg/dL
Cl [5]: 103.8 meq/L
DBIL [5]: 0.086 mg/dL
GLC [5]: 192.8 mg/dL
IP [5]: 7.4 mg/dL
K [5]: 4.1 meq/L
LDH [5]: 185.2 IU/L
Na [5]: 141.4 meq/L
PL [5]: 152.6 mg/dL
RALB [5]: 3.5 g/dL
TBIL [5]: 0.1 mg/dL
TC [5]: 82.2 mg/dL
TG [5]: 80 mg/dL
TP [5]: 5.7 g/dL
gamma-GTP [5]: 1 IU/L
TERMINAL_BW [6]: 264.8 g
TERMINAL_BW [7]: 314.1 g
TERMINAL_BW [8]: 381.6 g
APTT [6]: 19.8 s
Bas [6]: 0%
Eos [6]: 1%
Fbg [6]: 233.2 mg/dL
Hb [6]: 14 g/dL
Ht [6]: 39.9%
Lym [6]: 81.8%
MCH [6]: 21.8 pg
MCHC [6]: 35.2%
MCV [6]: 62.1 fL
Mono [6]: 2.6%
Neu [6]: 13.6%
PT [6]: 12.3 s
Plat [6]: 127.2 x10_4/uL
RBC [6]: 643.2 x10_4/ul
Ret [6]: 5.2%
WBC [6]: 99.9 x10_2/uL
APTT [7]: 19.6 s
Bas [7]: 0%
Eos [7]: 0.8%
Fbg [7]: 243.8 mg/dL
Hb [7]: 14.7 g/dL
Ht [7]: 40.9%
Lym [7]: 78.6%
MCH [7]: 21.7 pg
MCHC [7]: 36%
MCV [7]: 60.4 fL
Mono [7]: 2%
Neu [7]: 16.4%
PT [7]: 11.9 s
Plat [7]: 101 x10_4/uL
RBC [7]: 678 x10_4/ul
Ret [7]: 4%
WBC [7]: 109.6 x10_2/uL
APTT [8]: 20.9 s
Bas [8]: 0.2%
Eos [8]: 1%
Fbg [8]: 228.8 mg/dL
Hb [8]: 15.7 g/dL
Ht [8]: 45.1%
Lym [8]: 82.6%
MCH [8]: 19.8 pg
MCHC [8]: 34.9%
MCV [8]: 56.5 fL
Mono [8]: 1.8%
Neu [8]: 12.8%
PT [8]: 12.2 s
Plat [8]: 103.7 x10_4/uL
RBC [8]: 797.4 x10_4/ul
Ret [8]: 1.8%
WBC [8]: 119.7 x10_2/uL
KIDNEY_L [6]: 1.1 g
KIDNEY_R [6]: 1.1 g
KIDNEY_TOTAL [6]: 2.2 g
KIDNEY_L [7]: 1.2 g
KIDNEY_R [7]: 1.2 g
KIDNEY_TOTAL [7]: 2.4 g
KIDNEY_L [8]: 1.4 g
KIDNEY_R [8]: 1.3 g
KIDNEY_TOTAL [8]: 2.7 g
LIVER [6]: 12.5 g
LIVER [7]: 14.7 g
LIVER [8]: 15.5 g
A/G [6]: 1.5
ALP [6]: 852.4 IU/L
ALT [6]: 32.4 IU/L
AST [6]: 61.2 IU/L
BUN [6]: 17.8 mg/dL
CRE [6]: 0.4 mg/dL
Ca [6]: 10.8 mg/dL
Cl [6]: 103 meq/L
DBIL [6]: 0.1 mg/dL
GLC [6]: 223.6 mg/dL
IP [6]: 7.9 mg/dL
K [6]: 3.9 meq/L
LDH [6]: 174.4 IU/L
Na [6]: 139.6 meq/L
PL [6]: 149.2 mg/dL
RALB [6]: 3.4 g/dL
TBIL [6]: 0.2 mg/dL
TC [6]: 73.2 mg/dL
TG [6]: 125.4 mg/dL
TP [6]: 5.6 g/dL
gamma-GTP [6]: 1.2 IU/L
A/G [7]: 1.4
ALP [7]: 793 IU/L
ALT [7]: 35.6 IU/L
AST [7]: 63.2 IU/L
BUN [7]: 16.4 mg/dL
CRE [7]: 0.5 mg/dL
Ca [7]: 10.7 mg/dL
Cl [7]: 103.6 meq/L
DBIL [7]: 0.1 mg/dL
GLC [7]: 190.4 mg/dL
IP [7]: 6.9 mg/dL
K [7]: 3.9 meq/L
LDH [7]: 180 IU/L
Na [7]: 142 meq/L
PL [7]: 159.4 mg/dL
RALB [7]: 3.5 g/dL
TBIL [7]: 0.2 mg/dL
TC [7]: 75.6 mg/dL
TG [7]: 152 mg/dL
TP [7]: 6 g/dL
gamma-GTP [7]: 1.2 IU/L
A/G [8]: 1.3
ALP [8]: 621.4 IU/L
ALT [8]: 32.8 IU/L
AST [8]: 63.4 IU/L
BUN [8]: 17.2 mg/dL
CRE [8]: 0.5 mg/dL
Ca [8]: 10.3 mg/dL
Cl [8]: 103.2 meq/L
DBIL [8]: 0.094 mg/dL
GLC [8]: 220.2 mg/dL
IP [8]: 6.6 mg/dL
K [8]: 3.6 meq/L
LDH [8]: 164.4 IU/L
Na [8]: 141.4 meq/L
PL [8]: 138.4 mg/dL
RALB [8]: 3.5 g/dL
TBIL [8]: 0.2 mg/dL
TC [8]: 65.2 mg/dL
TG [8]: 107.2 mg/dL
TP [8]: 6.3 g/dL
gamma-GTP [8]: 1.2 IU/L
